# Target: T1, S1P5 receptors (Homo sapiens, UniProt Q9H228)
# T1 construct: expressed in transfected cells; host or cells: CHO cells (membranes)
# Assay: [35S]-GTPγS binding assay on CHO-S1P5 membranes (S1P5 agonism)
# Format: biochemical
# Settings: membranes of CHO cells expressing recombinant S1P5; measure of S1P5 agonism
# Method: CHO cells expressing recombinant S1P5 receptors were cultured in 500 cm^2 culture trays and, once confluent, rinsed and detached with cell-lifting buffer (10 mM HEPES, 154 mM NaCl, 6.85 mM EDTA, pH 7.4). Cells were then pelleted by centrifugation, resuspended, and homogenized in membrane preparation buffer (10 mM HEPES and 10 mM EDTA, pH 7.4) using a Polytron PT 1200E homogenizer (Kinematica, Luzern, Switzerland). Cellular proteins were pelleted by centrifugation at 48,000×g at 4° C. for 30 minutes. The resulting supernatant was discarded, and the pellet was re-suspended again in membrane preparation buffer, homogenized for a second time, and then centrifuged again as described above. The final cellular protein pellet was suspended in ice cold resuspension buffer (10 mM HEPES and 0.1 mM EDTA, pH 7.4), divided into aliquots, and stored at −80° C. until use.
# Functional binding assays for [^35S]-GTPγS were performed in 96-well non-binding surface plates with a final volume of 200 μL. The test compounds were serially diluted in DMSO and added to assay plates using a Tecan D300E digital printer with a total volume of 0.4 μL. The control sphingosine-1-phosphate (SIP) was prepared separately by preparing a 400 µM stock solution from a 100 nmol pellet of S1P in 10 mM Na2CO3 with 2% β-cyclodextrin. The serial dilution of S1P was done using complete assay buffer (20 mM HEPES, 10 mM MgCl2, 100 mM NaCl, 1 mM EDTA, 0.1% fatty acid free bovine serum albumin (BSA), and 30 μg/mL saponin, pH 7.4) and transferred to wells already containing 0.4 μL DMSO. All the wells were then loaded to a total volume of 40 μL of complete assay buffer, except the non-specific binding (NSB) wells. For NSB wells, 40 μL/well of 50 μM GTPγS (Sigma Aldrich, cat #G8634, St. Louis, MO) was added to wells containing 0.4 μL of DMSO. The assay was started by the addition of 120 μL/well of CHO-SIP receptor membrane solution containing 40 μg/mL of membrane protein, 16.67 μM guanosine diphosphate (GDP; Sigma Aldrich, cat #G7127, St. Louis, MO), and 2.5 mg/mL of WGA PVT SPA beads in complete buffer. Assay plates were then sealed and incubated at room temperature with gentle agitation for 30 minutes. Next, 40 μL/well of 1 nM of [^35S]-GTPγS (PerkinElmer, cat #NEG030X^250UC, Waltham, MA) in basic assay buffer (20 mM HEPES, 10 mM MgCl2, 100 mM NaCl, and 1 mM EDTA, pH7.4) was added to the assay plates to yield a final concentration of […] and the plates were further incubated for 40 minutes at room temperature with gentle agitation. The assay was terminated by centrifugation of the plates at 1000 rpm for 3 minutes using an Eppendorf 5810R centrifuge (Eppendorf, Hamburg, Germany) and G protein bound radioactivity was quantitated using a MicroBeta2 microplate scintillation counter (PerkinElmer, Waltham, MA). As G protein bound radioactivity directly correlates to receptor activation and coupling to the G protein, this assay is a measure of S1P5 agonism.
# T1 sequence (Q9H228 whole entry): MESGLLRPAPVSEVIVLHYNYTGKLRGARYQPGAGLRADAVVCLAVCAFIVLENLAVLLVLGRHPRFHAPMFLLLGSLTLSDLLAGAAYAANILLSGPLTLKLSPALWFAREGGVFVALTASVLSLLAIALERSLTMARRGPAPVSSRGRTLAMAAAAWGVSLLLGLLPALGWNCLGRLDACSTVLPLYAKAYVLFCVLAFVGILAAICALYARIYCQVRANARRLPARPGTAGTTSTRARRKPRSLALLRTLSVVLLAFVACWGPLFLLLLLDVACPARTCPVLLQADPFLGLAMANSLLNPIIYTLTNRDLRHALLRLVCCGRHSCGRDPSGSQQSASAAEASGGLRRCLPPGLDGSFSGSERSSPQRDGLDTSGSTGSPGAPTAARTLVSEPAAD
row,EC50 [nM],SMILES
1,100 to 1000,"Cc1cc(C2CN(c3c(Cl)cccc3Cl)C2)cc(C)c1CN1CC(O)(CF)C1 [Compound 39, 1-(4-(1-(2,6-dichlorophenyl)azetidin-3-yl)-2,6-dimethylbenzyl)-3-(fluoromethyl) azetidin-3-ol]"
2,100 to 1000,"Cc1cc(C2CN(c3c(Cl)cccc3Cl)C2)cc(C)c1CN1CC(O)(C(F)F)C1 [Compound 40, 1-(4-(1-(2,6-dichlorophenyl)azetidin-3-yl)-2,6-dimethylbenzyl)-3-(difluoromethyl) azetidin-3-ol]"
3,100 to 1000,"Cc1cc(C2CN(c3c(Cl)cccc3Cl)C2)cc(C)c1CN1CC(O)(C(F)(F)F)C1 [Compound 41, 1-(4-(1-(2,6-dichlorophenyl)azetidin-3-yl)-2,6-dimethylbenzyl)-3-(trifluoromethyl) azetidin-3-ol]"
4,10 to 100,"Cc1cc(C2CN(c3c(F)cccc3F)C2)cc(C)c1CN1CC(C)(O)C1 [Compound 42, 1-(4-(1-(2,6-difluorophenyl)azetidin-3-yl)-2,6-dimethylbenzyl)-3-methylazetidin-3-ol]"
5,1000 to 10000,"Cc1cc(C2CN(c3ccccc3)C2)cc(C)c1CN1CC(C)(O)C1 [Compound 43, 1-(2,6-dimethyl-4-(1-phenylazetidin-3-yl)benzyl)-3-methylazetidin-3-ol]"
6,1000 to 10000,"Cc1cc(C2CN(c3ccccc3F)C2)cc(C)c1CN1CC(C)(O)C1 [Compound 44, 1-(4-(1-(2-fluorophenyl)azetidin-3-yl)-2,6-dimethylbenzyl)-3-methylazetidin-3-ol]"
7,1000 to 10000,"Cc1cc(C2CN(c3cccc(F)c3)C2)cc(C)c1CN1CC(C)(O)C1 [Compound 45, 1-(4-(1-(3-fluorophenyl)azetidin-3-yl)-2,6-dimethylbenzyl)-3-methylazetidin-3-ol]"
8,100 to 1000,"Cc1cc(C2CN(c3ccc(C4CC4)c(Cl)c3)C2)cc(C)c1CN1CC(C)(O)C1 [Compound 46, 1-(4-(1-(3-chloro-4-cyclopropylphenyl)azetidin-3-yl)-2,6-dimethylbenzyl)-3-methylazetidin-3-ol]"
9,10 to 100,"Cc1cc(C2CN(c3c(Cl)cccc3Cl)C2)cc(F)c1CN1CC(C)(O)C1 [Compound 48, 1-(4-(1-(2,6-dichlorophenyl)azetidin-3-yl)-2-fluoro-6-methylbenzyl)-3-methylazetidin-3-ol]"
10,10 to 100,"Cc1cc(C2CN(c3c(Cl)cccc3Cl)C2)cc(Cl)c1CN1CC(C)(O)C1 [Compound 49, 1-(2-chloro-4-(1-(2,6-dichlorophenyl)azetidin-3-yl)-6-methylbenzyl)-3-methylazetidin-3-ol]"
11,10 to 100,"CC1(O)CN(Cc2ccc(C3CN(c4c(Cl)cccc4Cl)C3)cc2C2CC2)C1 [Compound 50, 1-(2-cyclopropyl-4-(1-(2,6-dichlorophenyl)azetidin-3-yl)benzyl)-3-methylazetidin-3-ol]"
12,10 to 100,"CCc1cc(C2CN(c3c(Cl)cccc3Cl)C2)cc(C)c1CN1CC(C)(O)C1 [Compound 51, 1-(4-(1-(2,6-dichlorophenyl)azetidin-3-yl)-2-ethyl-6-methylbenzyl)-3-methylazetidin-3-ol]"
13,100 to 1000,"CCc1cc(C2CN(c3c(Cl)cccc3Cl)C2)cc(CC)c1CN1CC(C)(O)C1 [Compound 52, 1-(4-(1-(2,6-dichlorophenyl)azetidin-3-yl)-2,6-diethylbenzyl)-3-methylazetidin-3-ol]"
14,1000 to 10000,"CC(C)c1cc(C2CN(c3c(Cl)cccc3Cl)C2)cc(C(C)C)c1CN1CC(C)(O)C1 [Compound 53, 1-(4-(1-(2,6-dichlorophenyl)azetidin-3-yl)-2,6-diisopropylbenzyl)-3-methylazetidin-3-ol]"
15,10 to 100,"Cc1cc(C2CN(c3c(Cl)cccc3Cl)C2)cc(C2CC2)c1CN1CC(C)(O)C1 [Compound 54, 1-(2-cyclopropyl-4-(1-(2,6-dichlorophenyl)azetidin-3-yl)-6-methylbenzyl)-3-methylazetidin-3-ol]"
16,10 to 100,"CC1(O)CN(Cc2ccc(C3CN(c4c(Cl)cccc4Cl)C3)c3ccccc23)C1 [Compound 55, 1-((4-(1-(2,6-dichlorophenyl)azetidin-3-yl)naphthalen-1-yl)methyl)-3-methylazetidin-3-ol]"
17,10 to 100,"Cc1cc(C2CN(c3c(Cl)cccc3Cl)C2)c(C)cc1CN1CC(C)(O)C1 [Compound 56, 1-(4-(1-(2,6-dichlorophenyl)azetidin-3-yl)-2,5-dimethylbenzyl)-3-methylazetidin-3-ol]"
18,10 to 100,"Cc1cc(CN2CC(C)(O)C2)cc(C)c1C1CN(c2c(Cl)cccc2Cl)C1 [Compound 57, 1-(4-(1-(2,6-dichlorophenyl)azetidin-3-yl)-3,5-dimethylbenzyl)-3-methylazetidin-3-ol]"
19,1000 to 10000,"CC1(O)CN(Cc2ccc(C3CN(c4c(Cl)cccc4Cl)C3)nc2)C1 [Compound 58, 1-((6-(1-(2,6-dichlorophenyl)azetidin-3-yl)pyridin-3-yl)methyl)-3-methylazetidin-3-ol]"
20,100 to 1000,"CC1(O)CN(Cc2ccc(C3CN(c4c(Cl)cccc4Cl)C3)cn2)C1 [Compound 59, 1-((5-(1-(2,6-dichlorophenyl)azetidin-3-yl)pyridin-2-yl)methyl)-3-methylazetidin-3-ol]"
21,100 to 1000,"CC1(O)CN(Cc2ccc(C3CN(c4c(Cl)cccc4Cl)C3)c(F)c2)C1 [Compound 60, 1-(4-(1-(2,6-dichlorophenyl)azetidin-3-yl)-3-fluorobenzyl)-3-methylazetidin-3-ol]"
22,100 to 1000,"CC1(O)CN(Cc2ccc(C3CN(c4c(Cl)cccc4Cl)C3)cc2F)C1 [Compound 61, 1-(4-(1-(2,6-dichlorophenyl)azetidin-3-yl)-2-fluorobenzyl)-3-methylazetidin-3-ol]"
23,1 to 10,"Cc1cc(N2CC(c3c(Cl)cccc3Cl)C2)c(C)cc1CN1CC(C)(O)C1 [Compound 62, 1-(4-(3-(2,6-dichlorophenyl)azetidin-1-yl)-2,5-dimethylbenzyl)-3-methylazetidin-3-ol]"
24,1 to 10,"Cc1cc(CN2CC(C)(O)C2)cc(C)c1N1CC(c2c(Cl)cccc2Cl)C1 [Compound 63, 1-(4-(3-(2,6-dichlorophenyl)azetidin-1-yl)-3,5-dimethylbenzyl)-3-methylazetidin-3-ol]"
25,100 to 1000,"CC1(O)CN(Cc2ccc(N3CC(c4c(Cl)cccc4Cl)C3)nc2)C1 [Compound 64, 1-((6-(3-(2,6-dichlorophenyl)azetidin-1-yl)pyridin-3-yl)methyl)-3-methylazetidin-3-ol]"
26,10 to 100,"CC1(O)CN(Cc2ccc(N3CC(c4c(Cl)cccc4Cl)C3)cc2F)C1 [Compound 65, 1-(4-(3-(2,6-dichlorophenyl)azetidin-1-yl)-2-fluorobenzyl)-3-methylazetidin-3-ol]"
27,100 to 1000,"CC1(O)CN(Cc2ccc(N3CC(c4c(Cl)cccc4Cl)C3)cn2)C1 [Compound 66, 1-((5-(3-(2,6-dichlorophenyl)azetidin-1-yl)pyridin-2-yl)methyl)-3-methylazetidin-3-ol]"
28,10 to 100,"CC1(O)CN(Cc2ccc(N3CC(c4c(Cl)cccc4Cl)C3)c(F)c2)C1 [Compound 67, 1-(4-(3-(2,6-dichlorophenyl)azetidin-1-yl)-3-fluorobenzyl)-3-methylazetidin-3-ol]"
